Measured values taken from US10563263B2, “Genetic polymorphisms associated with statin response and cardiovascular diseases, methods of detection and uses thereof” (CELERA CORPORATION, priority 2010, dated 2020).

Tested on: CVD (CHD or stroke)
Assay: CARE: SNP by pravastatin treatment interaction, logistic regression (synergy index), CVD endpoint
Type: in vivo, human
Conditions: CARE
Description: CARE was a secondary prevention trial and WOSCOPS was a primary prevention trial.
The CHD endpoint was defined in the analyses herein of CARE as a composite endpoint of fatal CHD, definite non-fatal MI, or revascularization, and was defined in the analyses herein of WOSCOPS as a composite endpoint of death from CHD, nonfatal MI, or revascularization. In both the CARE and WOSCOPS analyses herein, the CVD endpoint was defined as a composite endpoint of CHD or stroke. […] Revascularization, which can include percutaneous transluminal coronary angioplasty (PTCA), stent placement, and coronary artery bypass graft (CABG), are medical interventions that indicate the presence of CHD.
Cohort and case-only study designs were used to identify SNPs associated with response to statin treatment.
For each SNP, a logistic regression model having treatment status as the dependent variable and SNP as the independent predictor variable was performed, with terms for age, sex and race included in the model as covariates. The anti-log of the regression coefficient corresponding to the SNP is an estimate of the synergy index (SI) (Davis et al., “Imputing gene-treatment interactions when the genotype distribution is unknown using case-only and putative placebo analyses-a new method for the Genetics of Hypertension Associated Treatment (GenHAT) study”, Statistics in Medicine 23: (2004), pages 2413-2427). The SI is a ratio of odds ratios: for example in the CARE and WOSCOPS studies, the SI represents the factor by which the odds-ratio of statin treatment, compared with placebo, among major homozygous individuals is multiplied by in order to obtain the odds-ratio of treatment vs. placebo among heterozygous individuals; and multiplied by a second time to obtain the odds-ratio of treatment vs. placebo in minor homozygous individuals. […] In a randomized clinical trial, genotype and treatment are independent by design.

In the case of `CC[C@H](C)C(=O)O[C@H]1C[C@H](O)C=C2C=C[C@H](C)[C@H](CC[C@@H](O)C[C@@H](O)CC(=O)O)[C@H]21` [Pravastatin, pravastatin], the “OR (synergy index, SNP x pravastatin treatment interaction)” value (rs152707 allele A, model ADD, Imputed) was 0.684, the “OR (synergy index, SNP x pravastatin treatment interaction)” value (rs152712 allele C, model ADD, Genotyped) was 0.6783 and the “OR (SNP x pravastatin interaction)” value (rs208026 allele A, DOM model, Genotyped) was 1.457. For the same molecule, the “OR (SNP x pravastatin interaction)” value (rs208029 allele T, DOM model, Imputed) was 1.41, the “OR (SNP x pravastatin interaction)” value (rs208757 allele G, DOM model, Imputed) was 1.423 and the “OR (SNP x pravastatin interaction)” value (rs229775 allele A, REC model, Imputed) was 0.3933. For the same molecule, the “OR (SNP x pravastatin interaction)” value (rs229815 allele T, REC model, Imputed) was 0.4053, the “OR (SNP x pravastatin interaction)” value (rs229829 allele C, REC model, Imputed) was 0.5066 and the “OR (SNP x pravastatin interaction)” value (rs229831 allele A, REC model, Imputed) was 0.3945. The “OR (SNP x pravastatin interaction)” value (rs238252 allele G, ADD model, Imputed) was 1.66, the “OR (SNP x pravastatin interaction)” value (rs238252 allele G, DOM model, Imputed) was 1.848 and the “OR (synergy index, SNP x pravastatin treatment interaction)” value (rs1444741 allele A, model DOM, Imputed) was 0.6595. For the same molecule, the “OR (synergy index, SNP x pravastatin treatment interaction)” value (rs1449916 allele C, model DOM, Imputed) was 0.5892, the “OR (synergy index, SNP x pravastatin treatment interaction)” value (rs1459523 allele A, model ADD, Imputed) was 1.366 and the “OR (synergy index, SNP x pravastatin treatment interaction)” value (rs1476714 allele A, model DOM, Imputed) was 0.6618. For the same molecule, the “OR (synergy index, SNP x pravastatin treatment interaction)” value (rs1486723 allele C, model REC, Imputed) was 0.4458, the “OR (synergy index, SNP x pravastatin treatment interaction)” value (rs1495375 allele A, model ADD, Imputed) was 0.741 and the “OR (synergy index, SNP x pravastatin treatment interaction)” value (rs1495375 allele A, model DOM, Imputed) was 0.6085. For the same molecule, the “OR (synergy index, SNP x pravastatin treatment interaction)” value (rs1495381 allele T, model REC, Imputed) was 1.776, the “OR (synergy index, SNP x pravastatin treatment interaction)” value (rs1498061 allele C, model ADD, Imputed) was 0.4939 and the “OR (synergy index, SNP x pravastatin treatment interaction)” value (rs1498992 allele G, model DOM, Imputed) was 0.5981. The “OR (synergy index, SNP x pravastatin treatment interaction)” value (rs1499001 allele T, model DOM, Imputed) was 0.5667, the “OR (synergy index, SNP x pravastatin treatment interaction)” value (rs1512988 allele A, model ADD, Imputed) was 0.7274 and the “OR (synergy index, SNP x pravastatin treatment interaction)” value (rs1512988 allele A, model DOM, Imputed) was 0.6077. For the same molecule, the “OR (synergy index, SNP x pravastatin treatment interaction)” value (rs1512989 allele T, model ADD, Imputed) was 0.7274, the “OR (synergy index, SNP x pravastatin treatment interaction)” value (rs1512989 allele T, model DOM, Imputed) was 0.6077 and the “OR (synergy index, SNP x pravastatin treatment interaction)” value (rs1512991 allele T, model ADD, Imputed) was 0.7286. The “OR (synergy index, SNP x pravastatin treatment interaction)” value (rs1512991 allele T, model DOM, Imputed) was 0.6184, the “OR (synergy index, SNP x pravastatin treatment interaction)” value (rs1524306 allele C, model ADD, Imputed) was 1.366 and the “OR (synergy index, SNP x pravastatin treatment interaction)” value (rs1524310 allele G, model ADD, Imputed) was 1.366. For the same molecule, the “OR (synergy index, SNP x pravastatin treatment interaction)” value (rs1527059 allele A, model DOM, Imputed) was 0.5689, the “OR (synergy index, SNP x pravastatin treatment interaction)” value (rs1535866 allele G, model DOM, Imputed) was 1.391 and the “OR (synergy index, SNP x pravastatin treatment interaction)” value (rs1567740 allele T, model ADD, Imputed) was 0.7274. The “OR (synergy index, SNP x pravastatin treatment interaction)” value (rs1567740 allele T, model DOM, Imputed) was 0.6032, the “OR (synergy index, SNP x pravastatin treatment interaction)” value (rs1572573 allele A, model DOM, Imputed) was 1.748 and the “OR (synergy index, SNP x pravastatin treatment interaction)” value (rs1577497 allele C, model REC, Imputed) was 0.4912. For the same molecule, the “OR (synergy index, SNP x pravastatin treatment interaction)” value (rs1581514 allele T, model ADD, Imputed) was 1.353, the “OR (synergy index, SNP x pravastatin treatment interaction)” value (rs1582321 allele T, model DOM, Imputed) was 0.5814 and the “OR (synergy index, SNP x pravastatin treatment interaction)” value (rs1582322 allele A, model DOM, Imputed) was 0.5859. For the same molecule, the “OR (synergy index, SNP x pravastatin treatment interaction)” value (rs1582323 allele A, model DOM, Imputed) was 0.5825, the “OR (synergy index, SNP x pravastatin treatment interaction)” value (rs1592485 allele C, model DOM, Imputed) was 0.5835 and the “OR (synergy index, SNP x pravastatin treatment interaction)” value (rs1600954 allele T, model ADD, Imputed) was 1.379. For the same molecule, the “OR (synergy index, SNP x pravastatin treatment interaction)” value (rs1705261 allele A, model REC, Imputed) was 1.775, the “OR (synergy index, SNP x pravastatin treatment interaction)” value (rs1832222 allele G, model DOM, Imputed) was 1.612 and the “OR (synergy index, SNP x pravastatin treatment interaction)” value (rs1861327 allele G, model DOM, Imputed) was 0.5814. The “OR (synergy index, SNP x pravastatin treatment interaction)” value (rs1868581 allele G, model ADD, Imputed) was 1.366, the “OR (synergy index, SNP x pravastatin treatment interaction)” value (rs1874313 allele A, model ADD, Imputed) was 0.7419 and the “OR (synergy index, SNP x pravastatin treatment interaction)” value (rs1874313 allele A, model DOM, Imputed) was 0.615. For the same molecule, the “OR (SNP x pravastatin interaction)” value (rs1876409 allele C, DOM model, Imputed) was 0.6151, the “OR (SNP x pravastatin interaction)” value (rs1913201 allele G, ADD model, Imputed) was 0.7218 and the “OR (SNP x pravastatin interaction)” value (rs1913201 allele G, DOM model, Imputed) was 0.6464. The “OR (SNP x pravastatin interaction)” value (rs1936871 allele G, DOM model, Genotyped) was 0.571, the “OR (SNP x pravastatin interaction)” value (rs1961157 allele T, REC model, Imputed) was 0.6068 and the “OR (SNP x pravastatin interaction)” value (rs1987179 allele T, ADD model, Imputed) was 0.7138. For the same molecule, the “OR (SNP x pravastatin interaction)” value (rs1987179 allele T, DOM model, Imputed) was 0.6634, the “OR (SNP x pravastatin interaction)” value (rs1990023 allele T, DOM model, Imputed) was 0.6462 and the “OR (SNP x pravastatin interaction)” value (rs1995025 allele C, DOM model, Imputed) was 1.608. For the same molecule, the “OR (SNP x pravastatin interaction)” value (rs2016194 allele G, DOM model, Imputed) was 0.6626, the “OR (SNP x pravastatin interaction)” value (rs2023651 allele T, ADD model, Imputed) was 0.682 and the “OR (SNP x pravastatin interaction)” value (rs2024902 allele A, ADD model, Imputed) was 1.998. The “OR (SNP x pravastatin interaction)” value (rs2024902 allele A, DOM model, Imputed) was 2.076, the “OR (SNP x pravastatin interaction)” value (rs2025107 allele A, DOM model, Imputed) was 1.856 and the “OR (SNP x pravastatin interaction)” value (rs2025108 allele T, DOM model, Imputed) was 1.856. The “OR (SNP x pravastatin interaction)” value (rs2052428 allele C, DOM model, Imputed) was 0.5903, the “OR (SNP x pravastatin interaction)” value (rs2053230 allele C, ADD model, Imputed) was 0.5414 and the “OR (SNP x pravastatin interaction)” value (rs2062448 allele T, DOM model, Imputed) was 0.5462. For the same molecule, the “OR (SNP x pravastatin interaction)” value (rs2063420 allele C, REC model, Imputed) was 1.755, the “OR (SNP x pravastatin interaction)” value (rs2063591 allele C, ADD model, Imputed) was 0.7519 and the “OR (SNP x pravastatin interaction)” value (rs2063591 allele C, DOM model, Imputed) was 0.6237. The “OR (SNP x pravastatin interaction)” value (rs2095586 allele A, DOM model, Imputed) was 1.655, the “OR (SNP x pravastatin interaction)” value (rs2095606 allele A, DOM model, Imputed) was 0.5466 and the “OR (SNP x pravastatin interaction)” value (rs2102374 allele A, ADD model, Imputed) was 0.6269. The “OR (SNP x pravastatin interaction)” value (rs2102374 allele A, DOM model, Imputed) was 0.5989, the “OR (SNP x pravastatin interaction)” value (rs2108426 allele C, DOM model, Imputed) was 0.6626 and the “OR (SNP x pravastatin interaction)” value (rs2110664 allele A, DOM model, Imputed) was 1.429.
